Measured values taken from patent publication US20230407265A1, “COMPOSITION AND METHODS FOR 3D CULTURE OF ISLET CELLS” (CITY OF HOPE, priority 2022, published 2023).
Non-standard residues stand in square brackets, D forms with d. Residues, ends and D or L forms follow the SMILES beside them. pGlu = O=C1CC[C@@H](C(=O)O)N1

System: human islets
Assay: Islet viability and morphology assessment (PI/HO or FDA, DTZ staining)
Assay type: cell-based
Settings: 4 weeks in 3D hydrogel with 100 nM gastrin
Experimental: Islet cells were stained with 10 μg/mL propidium iodide (PI) (Millipore Sigma, St. Louis, MO, USA) and 10 μg/mL of Hoechst 33342 (HO) (Thermo Fisher Scientific, Waltham, MA) for 5 minutes at room temperature, washed with PBS, then placed on a 6-well plate. The images of PI/HO staining were taken under a IXDP50 Olympus fluorescent microscope with DP74 camera using a 4× objective lens (Olympus America). Viability was determined by the area of PI staining divided by the area of HO staining analyzed by CellSens software. For the experiment with gastrin culture, 0.5 μM Fluorescein diacetate (FDA) solution (Millipore Sigma) was used instead of HO to determine the viable total islets. The viability was determined by the area of PI staining divided by the total islet area analyzed by CellSens software. Islet morphology was evaluated by dithizone (DTZ) staining.

CC(C)C[C@H](NC(=O)[C@H](Cc1c[nH]c2ccccc12)NC(=O)CNC(=O)[C@H](Cc1ccc(O)cc1)NC(=O)[C@H](C)NC(=O)[C@H](CCC(=O)O)NC(=O)[C@H](CCC(=O)O)NC(=O)[C@H](CCC(=O)O)NC(=O)[C@H](CCC(=O)O)NC(=O)[C@H](CCC(=O)O)NC(=O)[C@H](CC(C)C)NC(=O)[C@H](Cc1c[nH]c2ccccc12)NC(=O)[C@@H]1CCCN1C(=O)CNC(=O)[C@@H]1CCC(=O)N1)C(=O)N[C@@H](CC(=O)O)C(=O)N[C@@H](Cc1ccccc1)C(N)=O [gastrin, [Leu15]-gastrin I] ([pGlu]GPWLEEEEEAYGWLDF-NH2)
islet viability: 92±6%
